The values below come from paper PMC9499324, “Glycyrrhizic Acid Derivatives Bearing Amino Acid Residues in the Carbohydrate Part as Dengue Virus E Protein Inhibitors: Synthesis and Antiviral Activity” (International Journal of Molecular Sciences, 2022).

Series [1] deals with DENV2. Description: DENV2-induced cytopathic effect (CPE) reduction screening in Vero E6 cells. The series is classed as cell-based, Dengue virus type 2. The settings on record: Dengue virus, Vero C1008; 10 μM compound, DENV2, Vero E6 cells, 96 h; read-out: CPE Reduction at 10 μM. As to the method: (§1) In the antiviral screening assay, each tested GL conjugate at 10 μM was used to survey the anti-DENV activity in Vero E6 cells using cytopathic effect (CPE) and infectivity reduction assays as described in our prior report. In CPE and infectivity reduction assays, Vero E6 cells were infected by DENV2 at an MOI of 0.005 and simultaneously treated 10 μM of indicated GL conjugate for 96 h, and then photographed by microscope for examining the levels of DENV2-induced CPE in infected cells treated with or without GL conjugate. Meanwhile, the cells were further performed using immunofluorescence assay (IFA) with anti-DENV NS4B antibodies (GeneTex, Inc., Hsinchu, Taiwan) and anti-rabbit IgG antibodies conjugated with AF555 (ThermoFisher, Waltham, MA, USA) plus DAPI (4′,6-diamidino-2-phenylindole) nuclear staining. Finally, the DENV-2 infectivity was measured according to the ratio of DENV NS4B-positive cells to DAPI-stained cells in the well of mock-treated or treated cells, as described in [45, 59, 60].

Series [2] deals with DENV2. Description: DENV2 infectivity inhibition (anti-NS4B immunofluorescence) in Vero E6 cells. The series is classed as cell-based, Dengue virus type 2.
Text: as §1, with “In the antiviral screening assay, each tested GL conjugate at 10 μM was used to survey the anti-DENV activity in Vero E6 cells using cytopathic effect (CPE) and infectivity reduction assays as described in our prior report.” left out, “[…],” for “Vero E6 cells were infected by DENV2 at an MOI of 0.005 and simultaneously treated 10 μM of indicated GL conjugate for 96 h,”

The nature of series [3]: MTT cytotoxicity assay in Vero E6 cells. It is filed as cell-based. The settings on record: African green monkey. As to the method:
Vero E6 cells and A549 cells (5 × 10^3 cells/well) were treated with the serial dilution of GL conjugates at 0, 0.1, 10, 20, and 50 μM for examining the in vitro cytotoxicity of tested compounds. After 96-h incubation at 37 °C, the cells were incubated with MTT (3-(4,5-Dimethylthiazol-2-yl)-2,5-Diphenyltetrazolium Bromide) solution for another 4 h incubation, mixed with DMSO for 15 min after the removal of media, and then measured the absorbance at 570 nm. The viability (%) of treated cells was quantified according to the reduced ability of MTT. Finally, the concentration for reducing 50% cell viability (the 50% cytotoxic concentration, CC50) was determined by regression analysis of the concentration–response survival curve.
(In general: Formazan colour is commonly taken as a measure of viable cells.)

Details of series [4]: method as in earlier work. The settings on record: mammals; cited from earlier work.

SMILES strings stand for the structures.

For orientation: IC50 means the concentration needed to halve the response being measured. As a reminder, the CC50 is the concentration that lowers cell viability or growth by half. By LD50 is commonly meant the dose expected to kill half of the subjects tested.

Turning to `CC1(C)[C@@H](O[C@H]2O[C@H](C(=O)O)[C@@H](O)[C@H](O)[C@H]2O[C@@H]2O[C@H](C(=O)O)[C@@H](O)[C@H](O)[C@H]2O)CC[C@]2(C)[C@H]3C(=O)C=C4[C@@H]5C[C@@](C)(C(=O)O)CC[C@]5(C)CC[C@@]4(C)[C@]3(C)CC[C@@H]12` [Compound 1, Glycyrrhizic acid], the inhibition at 10 µM in series [1] was 50 to 75%; in series [2] (Dengue virus, Vero C1008, 10 μM compound, DENV2, Vero E6 cells, 96 h, read-out: Inhibition (%) at 10 μM (reduction of NS4B-positive cells)), 70.5%. Further, the IC50 in series [2] (Dengue virus, DENV2, Vero C1008, Vero E6 cells, read-out: Inhibition of DENV2 Infectivity (IC50)) turned out to be 8.1 ± 0.21 µM. In series [2] (Vero E6 cells, DENV2), the “Selectivity Index (CC50/ IC50)” value is listed as over 12.3. This compound had a 50% cytotoxic concentration (CC50) at 96 h in series [3] of over 100 µM. Further, the median lethal dose (LD50) in series [4] is given as 5000 mg/kg.
